# From publication PMC11239830, “Synthetic macrolides overcoming MLSBK-resistant pathogens” (Cell Discovery, 2024)
# Where two headings read alike, the source gives them in different places.
# What was measured:
# [1] = system: 15B196 S. aureus ribosomes (A2058-methylated); assay: PURE in vitro translation inhibition assay; assay type: biochemical, Staphylococcus aureus; conditions: mean ± SD
# Experimental: (§1) To validate the in vitro activity of our compounds, we employed an in vitro reconstituted E. coli Protein synthesis Using a Recombinant Elements (PURE) translation system, substituting E. coli ribosomes with the purified S. aureus ribosomes.
# (§2) 5 μL of PURE reaction mix that translates a gene encoding the Nanoluc luciferase was set up in the presence or absence of tested compounds. Protein synthesis was initiated by incubating reactions at 37 °C for 60 min and stopped by placing on ice for 5 min. Luciferase activity was quantified using the Nano-Glo luciferase assay system and read on a GloMax 20/20 luminometer (Promega, USA). For each compound, the in vitro translation inhibition assay was performed in three biological triplicates over a range of concentrations from 0.001 μM to 1000 μM. A compound-free control was used to normalize luminescence measurements. The calculated luminescence percentages were plotted against compound concentrations on a semilog scale using GraphPad Prism.
# WT S. aureus ribosomes = assay: PURE in vitro translation inhibition assay; assay type: biochemical, Staphylococcus aureus; conditions: mean ± SD
# Experimental: as §1, §2
# [2] = system: human ribosome (HEK293F whole-cell lysate); assay: Mammalian cell-free in vitro translation assay; assay type: biochemical; conditions: human ribosomes, read-out: IC50, translation of Fluc mRNA
# Experimental: For the in vitro translation assay, the whole-cell extract was derived from cultured HEK293F cells. The translation reactions were conducted in a total volume of 10 μL, comprising 4 μL of the HEK293F extract, 1 μL 10× Translation Buffer containing 160 mM HEPESs-KOH (pH 7.6), 100 mM Creatine phosphate, 1 mM Spermidine, 10 mM ATP, 1 mM GTP, 20 mM DTT, 800 ng/μL CKM, 600 mM KOAc, 30 mM Mg(OAc)2 and 200 μM Amino acids. The reaction mixture also included 2 U of RiboLock RNase inhibitor (ThermoFisher Scientific), 0.5 mM D-luciferin (Promega), 1 μL of either antibiotic solution or solvent (water or 10% DMSO), as specified, and 100 ng mRNA (added as a 1 μL water solution after pre-incubation of the reaction mixture with antibiotic for 5 min at 30 °C). Following the addition of mRNA, the mixtures were transferred to a pre-heated 96-well CELL CULTER PLATE (WHB), sealed with a PCR plate seal, and incubated in the CLARIOstar plate reader (BMG Labtech) at 37 °C with continuous luciferase activity measurement, following established procedures[66],[67]. Luciferase activity values were determined based on light intensities at 60 min.
# [3] = CCK-8 assay for cytotoxicity; assay type: cell-based, human; conditions: human, HEK293T cells, HEK293T cell viability
# Experimental: HepG2 cells (6 × 10^3) and HEK293T cells (4 × 10^3) were seeded into 96-well plates in 90 μL of DMEM medium containing 10% FBS per well. […] After overnight incubation, the test compound stock solution was diluted with DMEM medium containing 10% FBS to every target concentration, and 10 μL of each was added to each well. Three parallel experiments were set up for each compound. After incubation for 48 h, 10 μL of cell counting kit-8 (CCK-8) reagent was added to each well in sequence according to the manufacturer’s instructions. […] This experiment was independently repeated three times. The data were processed by GraphPad Prism.
# S. aureus = assay: MIC, broth microdilution; assay type: cell-based, Staphylococcus aureus
# Procedure, shortened: (§3)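 Minimum inhibitory concentrations were measured by broth microdilution following CLSI guidelines. Plates were incubated at 37 °C for 16–20 h before results were read and recorded, and each determination was repeated at least three times.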
# S. pneumoniae = assay: MIC, broth microdilution; assay type: cell-based, Streptococcus pneumoniae
# Procedure, shortened: as §3
# M. catarrhalis = assay: MIC, broth microdilution; assay type: cell-based, Moraxella catarrhalis; conditions: Moraxella catarrhalis; M. catarrhalis 13L332, Ery-S; read-out: MIC
# Procedure, shortened: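 Visual read-out: the MIC is the lowest compound concentration without observable growth in CAMHB following incubation at 37 °C for 16–20 h, starting from 5 × 10^5 CFU/mL.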
# S. pyogenes = assay: MIC, broth microdilution; assay type: cell-based, Streptococcus pyogenes
# Procedure, shortened: as §3
# [4] = Staphylococcus aureus, MRSA, MRSA (13)
# [5] = Staphylococcus aureus, i-MLSB S. aureus (10)
smiles,measurement,setting,value
CC[C@H]1OC(=O)[C@H](C)[C@@H](OC(=O)NCCCCCCC#Cc2ccc3c(=O)c(C(=O)O)cn(C)c3c2)[C@H](C)[C@@H](O[C@@H]2O[C@H](C)C[C@H](N(C)C)[C@H]2O)[C@](C)(OC)C[C@@H](C)C(=O)[C@H](C)[C@H]2NC(=O)O[C@@]21C [MCX-219],IC50,[1],570 ± 140 nM
same,IC50,WT S. aureus ribosomes,720 ± 370 nM
same,IC50,[2],> 100000 nM
same,CC50 at 48 h,[3],25700 ± 4080 nM
same,MIC,"S. aureus; S. aureus 15B196, Clinical, MRSA, c-ermB",1 µg/mL
same,MIC,"S. aureus; S. aureus 21B200, Clinical, MRSA, c-ermB",4 µg/mL
same,MIC,"S. aureus; S. aureus 21B207, Clinical, MRSA, c-ermB",2 µg/mL
same,MIC,"S. aureus; S. aureus 21B212, Clinical, MSSA, i-ermC",0.25 µg/mL
same,MIC,"S. aureus; S. aureus 21C173, Clinical, MSSA, i-ermC",0.25 µg/mL
same,MIC,"S. aureus; S. aureus 21C174, Clinical, MSSA, c-ermB",0.25 µg/mL
same,MIC,"S. aureus; S. aureus 21C187, Clinical, MRSA, i-ermA",0.12 µg/mL
same,MIC,"S. aureus; S. aureus 21D112, Clinical, MSSA, c-ermB",16 µg/mL
same,MIC,"S. aureus; S. aureus 21D115, Clinical, MSSA, i-ermC",0.25 µg/mL
same,MIC,"S. aureus; S. aureus 21F198, Clinical, MRSA, c-ermB",1 µg/mL
same,MIC,"S. aureus; S. aureus 21F206, Clinical, MSSA, c-ermB",8 µg/mL
same,MIC,"S. aureus; S. aureus 21F207, Clinical, MRSA, i-ermC",0.25 µg/mL
same,MIC,"S. aureus; S. aureus 21K194, Clinical, MSSA, i-ermC",0.06 µg/mL
same,MIC,"S. aureus; S. aureus 21N354, Clinical, MRSA, c-ermB",1 µg/mL
same,MIC,"S. aureus; S. aureus 21P191, Clinical, MSSA, c-ermC",16 µg/mL
same,MIC,"S. aureus; S. aureus 21P404, Clinical, MSSA, i-ermC",0.25 µg/mL
same,MIC,"S. aureus; S. aureus 21P407, Clinical, MRSA, c-ermB",8 µg/mL
same,MIC,"S. aureus; S. aureus 21Q253, Clinical, MRSA, c-ermB",1 µg/mL
same,MIC,"S. aureus; S. aureus 21R216, Clinical, MSSA, c-ermC",16 µg/mL
same,MIC,"S. aureus; S. aureus 21T141, Clinical, MRSA, c-ermB",1 µg/mL
same,MIC,"S. aureus; S. aureus 21X388, Clinical, i-ermA (MRSA in Table S9, MSSA in Fig. 2a)",0.06 µg/mL
same,MIC,"S. aureus; S. aureus 21Y223, Clinical, MRSA, i-ermC",0.25 µg/mL
same,MIC,S. aureus; S. aureus ATCC29213,0.12 µg/mL
same,MIC,"S. aureus; S. aureus PU32, Clinical, MRSA, i-ermA",0.25 µg/mL
same,MIC50,S. aureus; [4],1 µg/mL
same,MIC90,S. aureus; [4],4 µg/mL
same,MIC50,"S. aureus; Staphylococcus aureus, MSSA, MSSA (10)",0.25 µg/mL
same,MIC,"S. aureus; Staphylococcus aureus, S. aureus 15B196, c-ermB, read-out: MIC",1 µg/mL
same,MIC,"S. aureus; Staphylococcus aureus, S. aureus PU32, i-ermA, read-out: MIC",0.25 µg/mL
same,MIC50,"S. aureus; Staphylococcus aureus, c-MLSB (constitutive) S. aureus (13)",2 µg/mL
same,MIC90,"S. aureus; Staphylococcus aureus, c-MLSB S. aureus (13)",16 µg/mL
same,MIC50,S. aureus; [5],0.25 µg/mL
same,MIC90,S. aureus; [5],0.25 µg/mL
same,MIC90,"S. aureus; Staphylococcus aureus, MSSA (10)",16 µg/mL
same,MIC,"S. pneumoniae; S. pneumoniae 07P390, c-ermB, listed as 88g",0.06 µg/mL
same,MIC,"S. pneumoniae; S. pneumoniae 21C315, Clinical, c-ermB",0.016 µg/mL
same,MIC,"S. pneumoniae; S. pneumoniae 21D016, Clinical, c-ermB, mef",0.03 µg/mL
same,MIC,"S. pneumoniae; S. pneumoniae 21D020, Clinical, c-ermB, mef",0.03 µg/mL
same,MIC,"S. pneumoniae; S. pneumoniae 21M277, Clinical, c-ermB",0.25 µg/mL
same,MIC,"S. pneumoniae; S. pneumoniae 21Q352, Clinical, i-MLSB",≤ 0.002 µg/mL
same,MIC,"S. pneumoniae; S. pneumoniae 21Q353, Clinical, i-MLSB",≤ 0.002 µg/mL
same,MIC,"S. pneumoniae; S. pneumoniae 21W257, Clinical, c-ermB, mef",0.016 µg/mL
same,MIC,"S. pneumoniae; S. pneumoniae 21X435, Clinical",≤ 0.002 µg/mL
same,MIC,S. pneumoniae; S. pneumoniae ATCC49619,≤ 0.002 µg/mL
same,MIC,"S. pneumoniae; Streptococcus pneumoniae, ATCC49619, S. pneumoniae ATCC49619, Ery-S, read-out: MIC",≤ 0.008 µg/mL
same,MIC,"S. pneumoniae; Streptococcus pneumoniae, S. pneumoniae 05O173, c-ermB, mef, read-out: MIC",2 µg/mL
same,MIC,"S. pneumoniae; Streptococcus pneumoniae, S. pneumoniae 07P390, c-ermB, read-out: MIC",0.03 µg/mL
same,MIC,"S. pneumoniae; Streptococcus pneumoniae, S. pneumoniae PU09, mef, read-out: MIC",≤ 0.008 µg/mL
same,MIC,M. catarrhalis,0.5 µg/mL
same,MIC,"S. pyogenes; S. pyogenes 01-968, Clinical, i-ermB",≤ 0.002 µg/mL
same,MIC,"S. pyogenes; S. pyogenes 12-207, Clinical, mef",0.016 µg/mL
same,MIC,"S. pyogenes; S. pyogenes 21C303, Clinical, c-ermB",0.5 µg/mL
same,MIC,"S. pyogenes; S. pyogenes 21D184, Clinical, c-ermB",0.5 µg/mL
same,MIC,"S. pyogenes; S. pyogenes 21D199, Clinical, c-ermB",1 µg/mL
same,MIC,"S. pyogenes; S. pyogenes 21D200, Clinical, c-ermB",0.25 µg/mL
same,MIC,"S. pyogenes; S. pyogenes 21K003, Clinical, mef",0.06 µg/mL
same,MIC,"S. pyogenes; S. pyogenes 21M063, Clinical, c-ermB",0.25 µg/mL
same,MIC,"S. pyogenes; S. pyogenes 21W186, Clinical, c-ermTR",4 µg/mL
same,MIC,"S. pyogenes; Streptococcus pyogenes, S. pyogenes 01-968, i-ermTR (Table S5), read-out: MIC",≤ 0.008 µg/mL
same,MIC,"S. pyogenes; Streptococcus pyogenes, S. pyogenes 12-206, c-ermB (Table S5), read-out: MIC",0.12 µg/mL
same,MIC,"S. pyogenes; Streptococcus pyogenes, S. pyogenes 12-206, c-ermTR, read-out: MIC",0.06 µg/mL
